According to the supplement of paper PMC10307832:

What was measured:
Assay in all cases: relative viability (nuclei count vs DMSO), 5 days (fraction); higher = more cells survive
Carfilzomib + Navitoclax = compound: CC(C)C[C@H](NC(=O)[C@H](CCc1ccccc1)NC(=O)CN1CCOCC1)C(=O)N[C@@H](Cc1ccccc1)C(=O)N[C@@H](CC(C)C)C(=O)[C@@]1(C)CO1 [Carfilzomib] + CC1(C)CCC(c2ccc(Cl)cc2)=C(CN2CCN(c3ccc(C(=O)NS(=O)(=O)c4ccc(N[C@H](CCN5CCOCC5)CSc5ccccc5)c(S(=O)(=O)C(F)(F)F)c4)cc3)CC2)C1 [Navitoclax] (partner 0.5 µM)
How it was run: (§1)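 Five library-drug doses in √10 steps were combined with a fixed anchor-drug dose, or a single drug was given alone, by pin tool to lung cancer cell lines in 1536-well plates the day after seeding. Nuclei were stained and counted after 5 days. Relative viability is the nuclei count in treated wells over that in vehicle wells, taken as the median of duplicate plates.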

Crizotinib + Navitoclax = compound: C[C@@H](Oc1cc(-c2cnn(C3CCNCC3)c2)cnc1N)c1c(Cl)ccc(F)c1Cl [Crizotinib] + CC1(C)CCC(c2ccc(Cl)cc2)=C(CN2CCN(c3ccc(C(=O)NS(=O)(=O)c4ccc(N[C@H](CCN5CCOCC5)CSc5ccccc5)c(S(=O)(=O)C(F)(F)F)c4)cc3)CC2)C1 [Navitoclax] (partner 0.5 µM)
How it was run: as §1

Crizotinib + Tozasertib = compound: C[C@@H](Oc1cc(-c2cnn(C3CCNCC3)c2)cnc1N)c1c(Cl)ccc(F)c1Cl [Crizotinib] + Cc1cc(Nc2cc(N3CCN(C)CC3)nc(Sc3ccc(NC(=O)C4CC4)cc3)n2)n[nH]1 [Tozasertib] (partner 0.1 µM)
How it was run: as §1

Olaparib + Luminespib = compound: O=C(c1cc(Cc2n[nH]c(=O)c3ccccc23)ccc1F)N1CCN(C(=O)C2CC2)CC1 [Olaparib] + CCNC(=O)c1noc(-c2cc(C(C)C)c(O)cc2O)c1-c1ccc(CN2CCOCC2)cc1 [Luminespib] (partner 0.01 µM)
How it was run: as §1

Olaparib + Pemetrexed = compound: O=C(c1cc(Cc2n[nH]c(=O)c3ccccc23)ccc1F)N1CCN(C(=O)C2CC2)CC1 [Olaparib] + Nc1nc2[nH]cc(CCc3ccc(C(=O)N[C@@H](CCC(=O)O)C(=O)O)cc3)c2c(=O)[nH]1 [Pemetrexed] (partner 0.2 µM)
How it was run: as §1

Cell Line: NCI-H1793
- relative viability (Carfilzomib + Navitoclax; first compound 0.003162 µM): 0.497
- relative viability (Carfilzomib + Navitoclax; first compound 0.01 µM): 0.52
- relative viability (Carfilzomib + Navitoclax; first compound 0.03162 µM): 0.462
- relative viability (Carfilzomib + Navitoclax; first compound 0.1 µM): 0.195
- relative viability (Crizotinib + Navitoclax; first compound 0.01 µM): 0.362
- relative viability (Crizotinib + Navitoclax; first compound 0.03162 µM): 0.486
- relative viability (Crizotinib + Navitoclax; first compound 0.1 µM): 0.384
- relative viability (Crizotinib + Navitoclax; first compound 1 µM): 0.529
- relative viability (Crizotinib + Tozasertib; first compound 0.03162 µM): 0.342
- relative viability (Crizotinib + Tozasertib; first compound 0.1 µM): 0.32
- relative viability (Crizotinib + Tozasertib; first compound 1 µM): 0.449
- relative viability (Olaparib + Luminespib; first compound 0.08 µM): 0.144
- relative viability (Olaparib + Luminespib; first compound 0.253 µM): 0.225
- relative viability (Olaparib + Luminespib; first compound 2.53 µM): 0.138
- relative viability (Olaparib + Luminespib; first compound 8 µM): 0.149
- relative viability (Olaparib + Pemetrexed; first compound 0.08 µM): 0.647
- relative viability (Olaparib + Pemetrexed; first compound 0.253 µM): 0.652
- relative viability (Olaparib + Pemetrexed; first compound 2.53 µM): 0.841
- relative viability (Olaparib + Pemetrexed; first compound 8 µM): 0.79
